Data set [1] addresses T1, Tar-LBD (Escherichia coli, UniProt P07017).
T1 construct: A DNA fragment encoding the Tar-LBD (amino acids 31 to 188) was amplified from genomic DNA of E. coli K12; His tag (from pET28b(+)) (N); made in house; host or cells: Escherichia coli BL21(DE3)
The data set is described as follows: ITC titration of Tar-LBD with L-aspartate at different pH. The class given is binding, E. coli K12. As to conditions: for pH range of binding: defined as binding with a KD below 1 mM. In general terms: ITC needs no label: the signal is the heat of the interaction.

In data set [2] the target is T1, Tar-LBD. The data set is described as follows: Differential scanning calorimetry of Tar-LBD thermal unfolding in presence of L-Asp. More on the design: species or system E. coli K12. As to conditions: 1 mM L-Asp. How it is done: Differential scanning calorimetry (DSC) provides information on the thermodynamics of protein unfolding. At 5.0, the optimal pH for binding and dimerization, Tar-LBD formed a sharp peak with or without 1 mM L-Asp (Fig. 5B and C, and Table S3), indicative of highly cooperative unfolding. […] We thus conclude that at all pH values tested, at least some of the protein was present in the dimeric form and capable of binding ligand.
Experiments were conducted on a MicroCal DSC-PEAQ system (Malvern Panalytical) at a scan rate of 90°C/h over a temperature range of 10°C to 85°C. Calorimetric cells (operating volume 0.134 mL) were kept under pressure (60 lb/in^2) to prevent sample degassing. Buffer-buffer baselines obtained after each assay were subtracted from the signal obtained from each of the samples. Protein samples were prepared as detailed in the “Analytical ultracentrifugation” section. The calorimetric enthalpies were estimated by integration of the transition peaks after subtracting the buffer-buffer baselines and fitting the curves to a “Non-two-state” model using MicroCal DSC-PEAQ software. For graphical clarity of the plots, baselines were manually curated and raw data were smoothed with the Savitzky-Golay algorithm.
(In general: Differential scanning calorimetry records heat flow against a reference as temperature is scanned.)

Data set [3] addresses T2, Tar (Escherichia coli, UniProt P07017).
T2 construct: expressed in transfected cells; host or cells: receptorless E. coli VS181, plasmid pSB13 (pKG116 derivative)
The data set is described as follows: FRET (CheY-YFP/CheZ-CFP) chemotaxis pathway response, Tar as sole chemoreceptor. It is filed as cell-based. As to conditions: E. coli VS181 with Tar as sole chemoreceptor, read-out: EC50 (half-maximal effective concentration), FRET titration.

The target of data set [4] is T1, Tar-LBD. The data set is described as follows: Sedimentation-velocity analytical ultracentrifugation of Tar-LBD with and without L-Asp. More on the design: species or system E. coli K12. The following applies: 1 mM ligand; all pH values analysed (3.5, 5.0, 7.0, 10.0).
Procedure: To estimate the sedimentation coefficient expected for the monomeric and dimeric states of the Tar-LBD, a hydrodynamic model was generated from the 3D structure of the protein (pdb ID 4Z9H) ([45]). Using the HYDROPRO software, the theoretical sedimentation coefficients were s(20,w) = 2.12 S for the monomer and 3.54 S for the dimer (Fig. 5A).
Experiments were conducted on a ProteomeLab XL-I instrument (Beckman-Coulter) equipped with interference and absorbance optics. Sedimentation was carried out at 42,000 rpm and 10°C in an eight-hole Ti-50 Beckman Coulter rotor and monitored with absorbance optics at 280 nm in continuous mode. Samples were dialyzed into 4 different buffers, namely, 10 mM citric acid/sodium citrate, pH 3.5; 10 mM citric acid/sodium citrate, pH 5.0; 3 mM Tris, 3 mM PIPES, 3 mM MES, pH 7.0, and 10 mM Na2CO3/NaHCO3, pH 10.0. […] Density and viscosity of the buffer were calculated with [sequence] […] To assign the sedimentation coefficient observed to the corresponding oligomeric species, theoretical s values were calculated via HYDROPRO ([92]) hydrodynamic modeling software, applied to the 3D structure of the Tar-LBD monomer and dimer (pdb ID 4H9Z), with a 2.9 Å radius for the primary elements.
The target in data set [5] is T3, McpS-LBD (Pseudomonas putida, UniProt Q88E10).
T3 construct: pET28b(+) derivative containing a DNA fragment encoding the McpS-LBD; made in house
T3 sequence (Q88E10 41-283): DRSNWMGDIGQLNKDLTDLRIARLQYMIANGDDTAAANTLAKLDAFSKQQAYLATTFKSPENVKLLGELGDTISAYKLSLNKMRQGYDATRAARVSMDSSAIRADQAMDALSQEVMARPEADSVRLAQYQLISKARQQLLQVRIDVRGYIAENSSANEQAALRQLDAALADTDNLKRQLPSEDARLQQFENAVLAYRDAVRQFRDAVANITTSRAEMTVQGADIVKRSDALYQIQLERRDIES
Briefly: ITC titration of McpS-LBD with L-malate at different pH. It is filed as binding, P. putida KT2440. The following applies: 25°C.

Data set [6] has as its target T4, McpS-Tar (UniProt P07017+Q88E10).
T4 construct: 295]-Tar[200-553] receptor; expressed in transfected cells; host or cells: receptorless E. coli VS181, plasmid pSB10 (pKG116 derivative)
Briefly: FRET (CheY-YFP/CheZ-CFP) chemotaxis pathway response, McpS-Tar hybrid as sole chemoreceptor. As to conditions: E. coli VS181 with McpS-Tar as sole chemoreceptor, read-out: EC50 (half-maximal effective concentration), FRET titration. The class given is cell-based.

Data set [7] concerns the target T5, CtpM-LBD (Pseudomonas aeruginosa, UniProt Q9I0I6).
T5 construct: containing a DNA fragment encoding the CtpM (PA2652)-LBD; made in house
The data set is described as follows: ITC titration of CtpM-LBD with L-malate at different pH. It is filed as binding, P. aeruginosa PAO1.

The target of data set [8] is McpV-LBD (Sinorhizobium meliloti, UniProt Q7APD1). The data set is described as follows: ITC titration of McpV-LBD with propionate at different pH. The class given is binding, Sinorhizobium meliloti RU11/001.
McpV-LBD, sequence (Q7APD1 entry or part of it): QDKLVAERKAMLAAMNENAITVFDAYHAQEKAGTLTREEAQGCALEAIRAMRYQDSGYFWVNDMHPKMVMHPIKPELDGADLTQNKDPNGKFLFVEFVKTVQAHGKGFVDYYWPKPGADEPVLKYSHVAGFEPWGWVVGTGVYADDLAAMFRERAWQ
Data set [9] concerns the target McpU-LBD (Pseudomonas putida, UniProt Q88NI1). Briefly: biochemical. As to the method:
(§1) To assess the pH dependence of ligand-binding, freshly purified proteins were dialyzed overnight into the buffers described in Table S1 and submitted to microcalorimetric titration.
(§2) Freshly purified proteins were dialyzed into the buffers specified in Table S1 and introduced into the sample cell of an VP-microcalorimeter (MicroCal). Proteins at 15 to 100 μM were titrated with 0.25 to 10 mM ligand solutions that were made up in dialysis buffer. For pH-active ligands, the pH of the ligand solutions was adjusted to that of the dialysis buffer by the addition of concentrated HCl or NaOH. Titrations of MBP and McpV-LBD were conducted at 15°C to favor endothermic contributions to binding heats, whereas the remaining titrations were carried out at 25°C. Raw titration data were integrated, corrected for ligand-dilution heats and normalized with the ligand concentrations. Resulting data were fitted with the “One Binding site model” of the MicroCal version of ORIGIN. Provided are the dissociation constants derived from one experiment and the error of curve-fitting.

The target of data set [10] is T6, PcaY_PP-LBD (Pseudomonas putida, UniProt Q88JK6).
T6 construct: made in house
T6 sequence (Q88JK6 44-196): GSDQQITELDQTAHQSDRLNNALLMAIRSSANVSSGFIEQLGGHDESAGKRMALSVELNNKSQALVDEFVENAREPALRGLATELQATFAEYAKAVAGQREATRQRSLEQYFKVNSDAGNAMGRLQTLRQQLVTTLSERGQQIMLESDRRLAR
The data set is described as follows: ITC titration of PcaY_PP-LBD with quinate at different pH. The class given is binding, P. putida KT2440. As to the method:
as §1, §2

The target in data set [11] is TodS-Nter (Pseudomonas putida, UniProt E0X9C7). Briefly: biochemical. How it is done: as §1, §2
TodS-Nter, sequence (E0X9C7 1-584): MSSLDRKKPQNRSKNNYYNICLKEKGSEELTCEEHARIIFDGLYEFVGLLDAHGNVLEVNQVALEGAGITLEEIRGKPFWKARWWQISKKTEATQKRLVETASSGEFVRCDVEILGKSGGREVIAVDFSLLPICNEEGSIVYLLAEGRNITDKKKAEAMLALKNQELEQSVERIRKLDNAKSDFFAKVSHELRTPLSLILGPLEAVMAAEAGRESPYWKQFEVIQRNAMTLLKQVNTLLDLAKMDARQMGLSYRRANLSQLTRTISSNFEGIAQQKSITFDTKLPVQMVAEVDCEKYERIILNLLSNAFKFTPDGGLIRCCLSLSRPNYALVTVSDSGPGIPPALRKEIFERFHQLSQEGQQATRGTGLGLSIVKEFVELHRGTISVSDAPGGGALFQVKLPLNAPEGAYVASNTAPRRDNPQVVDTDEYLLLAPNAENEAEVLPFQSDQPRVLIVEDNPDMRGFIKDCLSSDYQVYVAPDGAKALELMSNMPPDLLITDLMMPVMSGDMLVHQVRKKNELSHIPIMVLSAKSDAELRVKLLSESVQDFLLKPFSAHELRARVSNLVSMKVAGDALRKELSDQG
Data set [12] concerns the molecule itself. The data set is described as follows: AUC; sedimentation velocity with 1 mM L-Asp, 35 uM protein, pH 3.5, 5.0, 7.0 and 10.0, 10°C, 42,000 rpm; monomer to dimer.
Where [13] appears, read: ITC, 25°C, defined as binding with a KD below 1 mM.

A word on the Kd: it is the equilibrium constant for the complex coming apart. What is called stoichiometry N is a count of units in the complex or per binding partner.

“And” between values parts separate entries of the source, which are not always exact repeats. Equal values may be shown once. Read-outs that look alike come from different tables or passages of the source. Bounds are passed on as bounds.

T2 sequence (P07017 whole entry): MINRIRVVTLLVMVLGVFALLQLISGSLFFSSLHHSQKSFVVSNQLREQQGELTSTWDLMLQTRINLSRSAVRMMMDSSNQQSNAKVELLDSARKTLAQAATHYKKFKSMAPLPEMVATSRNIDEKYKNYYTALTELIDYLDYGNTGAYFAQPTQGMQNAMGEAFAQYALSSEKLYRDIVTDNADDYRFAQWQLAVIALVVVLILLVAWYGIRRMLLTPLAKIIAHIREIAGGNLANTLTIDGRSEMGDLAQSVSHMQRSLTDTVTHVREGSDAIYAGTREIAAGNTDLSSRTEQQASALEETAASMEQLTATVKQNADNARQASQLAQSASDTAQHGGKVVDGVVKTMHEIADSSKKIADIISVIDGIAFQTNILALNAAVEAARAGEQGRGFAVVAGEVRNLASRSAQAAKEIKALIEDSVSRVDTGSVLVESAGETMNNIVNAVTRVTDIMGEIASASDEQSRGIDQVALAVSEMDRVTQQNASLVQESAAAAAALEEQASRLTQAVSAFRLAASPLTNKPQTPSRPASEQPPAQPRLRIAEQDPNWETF
T5 sequence (Q9I0I6 33-205): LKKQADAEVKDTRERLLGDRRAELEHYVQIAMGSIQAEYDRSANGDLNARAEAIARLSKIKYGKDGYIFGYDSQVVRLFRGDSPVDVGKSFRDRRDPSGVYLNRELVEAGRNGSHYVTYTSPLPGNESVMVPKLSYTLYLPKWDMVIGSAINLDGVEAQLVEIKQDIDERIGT
T4 sequence (Q88E10+P07017 fused): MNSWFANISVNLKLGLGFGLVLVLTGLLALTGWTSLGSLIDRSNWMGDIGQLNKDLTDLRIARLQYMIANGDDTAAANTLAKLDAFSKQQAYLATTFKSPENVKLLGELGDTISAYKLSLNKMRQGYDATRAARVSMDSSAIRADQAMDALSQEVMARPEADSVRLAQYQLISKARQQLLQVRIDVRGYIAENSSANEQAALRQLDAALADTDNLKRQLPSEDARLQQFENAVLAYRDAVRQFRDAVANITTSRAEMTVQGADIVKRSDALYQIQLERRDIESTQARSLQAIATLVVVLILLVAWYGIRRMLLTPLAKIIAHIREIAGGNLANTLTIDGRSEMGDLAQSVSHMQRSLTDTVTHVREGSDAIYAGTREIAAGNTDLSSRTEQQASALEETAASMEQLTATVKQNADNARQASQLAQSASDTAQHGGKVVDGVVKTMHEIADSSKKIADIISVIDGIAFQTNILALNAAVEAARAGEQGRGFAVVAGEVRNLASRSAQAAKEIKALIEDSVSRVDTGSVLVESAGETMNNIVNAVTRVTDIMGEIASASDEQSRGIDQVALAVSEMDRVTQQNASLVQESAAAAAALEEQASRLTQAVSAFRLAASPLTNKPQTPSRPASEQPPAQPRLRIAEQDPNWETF
McpU-LBD, sequence (Q88NI1 50-284): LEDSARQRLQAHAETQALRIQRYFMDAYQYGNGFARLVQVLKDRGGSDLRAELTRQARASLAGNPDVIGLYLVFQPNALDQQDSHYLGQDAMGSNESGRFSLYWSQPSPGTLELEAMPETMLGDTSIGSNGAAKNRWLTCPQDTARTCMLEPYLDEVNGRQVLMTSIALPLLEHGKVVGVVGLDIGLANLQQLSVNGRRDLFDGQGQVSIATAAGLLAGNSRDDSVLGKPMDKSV

As for `N[C@@H](CC(=O)O)C(=O)O` [L-aspartate], the pH optimum in data set [1] (25°C) was 5.0. For the same molecule, the “pH range of binding” value was 3.0-10.5 in data set [1] (25°C) and at most 10.5 in [1] (25°C, listed as L-Asp). The Kd in [1] (25°C, pH 5.0, read-out: KD at pH optimum) stood at 400 nM. In data set [1] (pH 3.0 to 10.5), the “width of pH range of high-affinity binding” value is 7.5 pH units. Besides, the “Tm of Tar-LBD thermal unfolding” value in [2] (pH 3.5, two transitions) was 44.28 ºC and 64.51 ºC; in data set [2] (pH 5.0) it was 47.73 ºC; in data set [2] (pH 7.0, two transitions) it was 36.48 ºC and 42.20 ºC; in data set [2] (pH 10.0) it was 35.11 ºC. In addition, the “ΔH of Tar-LBD thermal unfolding” value in data set [2] (pH 5.0) was found to be 106.4 kcal/mol; in data set [2] (pH 10.0) it was 98.6 kcal/mol. The EC50 came to 166 ± 20 nM in data set [3] (pH 5.5), 202 ± 20 nM in [3] (pH 7.0), 77 ± 10 nM in data set [3] (pH 8.5) and 141 ± 20 nM in [3] (pH 9.5). In data set [4], the “effect on Tar-LBD monomer-dimer equilibrium” value is “shifted the equilibrium almost completely to the dimeric species”.

With `O=C(O)C[C@H](O)C(=O)O` [L-malate], the pH optimum in data set [5] is given as 5.5; in data set [7] (25°C) it was 6.5. For the same molecule, the “pH range of binding” value in [5] (defined as binding with a KD below 1 mM) is reported as 3.0-10.0; in [7] (25°C, defined as binding with a KD below 1 mM), 4.5-9.0. The Kd in data set [5] (pH 5.5, read-out: KD at pH optimum) was 4000 nM; in [7] (25°C, pH 6.5, read-out: KD at pH optimum), 38700 nM. In addition, the EC50 was found to be 9380 ± 1900 nM in data set [6] (pH 5.5), 2180 ± 410 nM in data set [6] (pH 7.0) and 7660 ± 1900 nM in data set [6] (pH 8.5). The “width of pH range of high-affinity binding” value in data set [7] is reported as 4.5 pH units.

Regarding `CCC(=O)O` [Propionate], in data set [8], the “width of pH range of high-affinity binding” value was found to be 6.5 pH units. In [8] (15°C), this molecule displayed a pH optimum of 7.0. In data set [8] (15°C, defined as binding with a KD below 1 mM), the “pH range of binding” value is recorded as 5.0-11.5. Besides, in data set [8] (15°C, pH 7.0, read-out: KD at pH optimum), the Kd is 33100 nM.

As to `NCCCCN` [Putrescine], the Kd in data set [9] worked out at 700 nM. In [9] (ITC, 25°C), the pH optimum came to 8.5. In addition, the “pH range of binding” value in data set [9] (setting [13]) was 4.5-11.5.

As to `O=C(O)[C@]1(O)C[C@@H](O)[C@@H](O)[C@H](O)C1` [Quinate], binding in [10] was put at a Kd of 1220 nM. In data set [10] (ITC, 25°C), this molecule came in with a pH optimum of 5.0. For the same molecule, the “pH range of binding” value in data set [10] (setting [13]) is 3.5-11.5. The “width of pH profile of binding” value in data set [10] (ITC, pH 3.5-11.5) was 8 pH units.

For `Cc1ccccc1` [Toluene], in [11], binding was put at a Kd of 250 nM. In addition, the “width of pH range of ligand recognition” value in [11] (ITC) is on record as 4 pH units. The same molecule showed a pH optimum in data set [11] (ITC, 25°C) of 6.5. Also, the “pH range of binding” value in data set [11] (setting [13]) is reported as 5.5-9.5.

B1: Tar-LBD (ligand-binding domain of the aspartate chemoreceptor Tar of E. coli) (domain or fragment, E. coli K12, UniProt P07017 31-188, looked up)
chain: SSLHHSQKSFVVSNQLREQQGELTSTWDLMLQTRINLSRSAVRMMMDSSNQQSNAKVELLDSARKTLAQAATHYKKFKSMAPLPEMVATSRNIDEKYKNYYTALTELIDYLDYGNTGAYFAQPTQGMQNAMGEAFAQYALSSEKLYRDIVTDNADDYR
notes: Cloned into the NdeI and BamHI sites of pET28b(+) and purified on a HisTrap column; In solution it is a rapidly interchanging mixture of monomer and dimer; also called E. coli Tar-LBD; LBD of the Tar chemoreceptor; source: E. coli BL21(DE3), purified (HisTrap)
B1: in [12], the “stoichiometry N” value was 2.

The values above are taken from paper PMC9600550, “The pH Robustness of Bacterial Sensing” (mBio, 2022).
